# Source: patent US20090197269A1, “Translocation and mutant CSF1R Kinase in human leukemia” (CELL SIGNALING TECHNOLOGY, INC., priority 2006, published 2009)
# How the values were obtained:
# STAT5 and ERK = assay: Western blot of downstream target phosphorylation in MKPL-1 cells; type: cell-based, human; settings: Imatinib
# CMK = assay: MTT cell proliferation assay, control cells; type: cell-based, human; settings: control cells (CMK negative control), 48 hour MTT
smiles,measurement,setting,value
Cc1ccc(NC(=O)c2ccc(CN3CCN(C)CC3)cc2)cc1Nc1nccc(-c2cccnc2)n1 [Imatinib],phosphorylation of downstream target STAT5 and ERK,STAT5 and ERK,inhibited as well
same,inhibition of cell growth,CMK,the control cells are not
